Test results reported in PMC7461557, “Multicopy Suppressor Analysis of Strains Lacking Cytoplasmic Peptidyl-Prolyl cis/trans Isomerases Identifies Three New PPIase Activities in Escherichia coli That Includes the DksA Transcription Factor” (International Journal of Molecular Sciences, 2020).

What was measured:
Cmk = molecular target: T1, Cmk (Escherichia coli, UniProt P0A6I0); experiment: chymotrypsin-coupled PPIase assay, absorbance […] nm; assay type: biochemical; conditions: inhibitor; substrate N-Suc-Ala-Ala-cis-Pro-Phe-p-nitroanilide; two-fold molar excess of FK506, 5 min preincubation; 35 mM HEPES pH 8.0, 10 °C
T1 construct: ASKA clone in pCA24N, Ni-NTA purified from E. coli lacking six PPIs (SR18292)
T1 sequence (P0A6I0 1-227): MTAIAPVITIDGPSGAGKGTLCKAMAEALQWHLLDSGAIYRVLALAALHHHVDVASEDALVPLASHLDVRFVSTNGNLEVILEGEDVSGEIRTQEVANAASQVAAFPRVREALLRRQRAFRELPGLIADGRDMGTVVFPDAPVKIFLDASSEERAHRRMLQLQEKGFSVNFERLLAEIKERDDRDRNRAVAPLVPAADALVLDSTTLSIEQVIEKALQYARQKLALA

MetL = molecular target: T2, MetL (Escherichia coli, UniProt P00562); experiment: chymotrypsin-coupled PPIase assay, absorbance […] nm; assay type: biochemical; conditions: inhibitor; substrate N-Suc-Ala-Ala-cis-Pro-Phe-p-nitroanilide; two-fold molar excess of FK506, 5 min preincubation; 35 mM HEPES pH 8.0, 10 °C
T2 construct: ASKA clone in pCA24N, Ni-NTA purified from E. coli lacking six PPIs (SR18292)
T2 sequence (P00562 whole entry): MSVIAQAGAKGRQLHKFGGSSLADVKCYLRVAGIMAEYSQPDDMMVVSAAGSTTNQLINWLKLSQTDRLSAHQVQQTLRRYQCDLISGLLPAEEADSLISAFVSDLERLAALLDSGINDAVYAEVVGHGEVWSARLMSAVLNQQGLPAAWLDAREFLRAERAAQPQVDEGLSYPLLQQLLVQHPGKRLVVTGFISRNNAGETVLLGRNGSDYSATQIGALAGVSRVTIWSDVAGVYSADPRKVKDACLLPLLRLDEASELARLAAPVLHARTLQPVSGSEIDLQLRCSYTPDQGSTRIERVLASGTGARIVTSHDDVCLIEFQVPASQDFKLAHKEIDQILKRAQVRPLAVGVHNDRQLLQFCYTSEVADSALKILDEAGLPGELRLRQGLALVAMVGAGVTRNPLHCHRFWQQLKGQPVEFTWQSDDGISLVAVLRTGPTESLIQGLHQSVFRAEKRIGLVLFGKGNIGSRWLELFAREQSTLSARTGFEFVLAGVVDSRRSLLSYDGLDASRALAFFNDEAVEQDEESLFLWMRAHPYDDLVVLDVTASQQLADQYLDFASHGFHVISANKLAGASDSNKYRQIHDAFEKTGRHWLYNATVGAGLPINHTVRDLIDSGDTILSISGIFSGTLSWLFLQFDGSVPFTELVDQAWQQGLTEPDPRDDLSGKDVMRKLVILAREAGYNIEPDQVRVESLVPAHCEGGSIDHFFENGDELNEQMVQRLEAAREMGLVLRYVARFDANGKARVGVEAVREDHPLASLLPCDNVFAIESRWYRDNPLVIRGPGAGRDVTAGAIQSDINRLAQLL

SMILES: C=CC[C@@H]1/C=C(\C)C[C@H](C)C[C@H](OC)[C@H]2O[C@@](O)(C(=O)C(=O)N3CCCC[C@H]3C(=O)O[C@H](/C(C)=C/[C@@H]3CC[C@@H](O)[C@H](OC)C3)[C@H](C)[C@@H](O)CC1=O)[C@H](C)C[C@@H]2OC [FK506]
- chymotrypsin-coupled PPIase assay, absorbance 390 nm (Cmk): inhibition of the PPIase activity of Cmk by the two-fold molar excess of FK506
- chymotrypsin-coupled PPIase assay, absorbance 390 nm (MetL): inhibition of the PPIase activity of MetL by the two-fold molar excess of FK506
